According to PubChem BioAssay AID2060606 (Molecular Pharmacology Branch, DTP, NCI, 2025):

System: 922993-354-T-J3-PDC complex spheroids, viability, % test/control
Experiment: Anticancer human tumor 922993-354-T-J3-PDC patient-derived endometrial carcinoma cell line growth inhibition [CLK]
Details: for IC50: curve of first compound; for viability, T/C: stronger effect = lower value; active means viability on the fitted dose curve at most 10% of control; inactive means the rest
Summary of the method: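 Multi-cell-type spheroids combined patient-derived tumor cells with HUVEC endothelial cells and human mesenchymal stem cells. Paired agents were dosed in half-log steps down from about clinical Cmax, or from 10 microM where Cmax was unknown.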

[1] = second compound 0.0316 µM, first compound 0.0316 µM
[2] = second compound 0.0316 µM, first compound 0.1 µM
[3] = second compound 0.0316 µM, first compound 0.316 µM
[4] = second compound 0.0316 µM, first compound 1 µM
[5] = second compound 0.0316 µM, first compound 3.16 µM
[6] = second compound 0.0316 µM, first compound 10 µM
[7] = second compound 0.1 µM, first compound 0.0316 µM
[8] = second compound 0.1 µM, first compound 0.1 µM
[9] = second compound 0.1 µM, first compound 0.316 µM
[10] = second compound 0.1 µM, first compound 1 µM
[11] = second compound 0.1 µM, first compound 3.16 µM
[12] = second compound 0.1 µM, first compound 10 µM
[13] = second compound 0.316 µM, first compound 0.0316 µM
[14] = second compound 0.316 µM, first compound 0.1 µM
[15] = second compound 0.316 µM, first compound 0.316 µM
[16] = second compound 0.316 µM, first compound 1 µM
[17] = second compound 0.316 µM, first compound 3.16 µM
[18] = second compound 0.316 µM, first compound 10 µM
[19] = second compound 1 µM, first compound 0.0316 µM
[20] = second compound 1 µM, first compound 0.1 µM
[21] = second compound 1 µM, first compound 0.316 µM
[22] = second compound 1 µM, first compound 1 µM
[23] = second compound 1 µM, first compound 3.16 µM
[24] = second compound 1 µM, first compound 10 µM
[25] = second compound 3.16 µM, first compound 0.0316 µM
[26] = second compound 3.16 µM, first compound 0.1 µM
[27] = second compound 3.16 µM, first compound 0.316 µM
[28] = second compound 3.16 µM, first compound 1 µM
[29] = second compound 3.16 µM, first compound 3.16 µM
[30] = second compound 3.16 µM, first compound 10 µM
[31] = second compound 10 µM, first compound 0.0316 µM
[32] = second compound 10 µM, first compound 0.1 µM
[33] = second compound 10 µM, first compound 0.316 µM
[34] = second compound 10 µM, first compound 1 µM
[35] = second compound 10 µM, first compound 3.16 µM
[36] = second compound 10 µM, first compound 10 µM
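Further: spheroids exposed to the agents for 7 days before readout.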

C#Cc1c(F)ccc2cc(O)cc(-c3ncc4c(N5CC6CCC(C5)N6)nc(OCC56CCCN5CC(F)C6)nc4c3F)c12 (stereo not drawn) + CNC(=O)c1ccc(Nc2nc(OC3CCCC3)c3c(-c4ccc5nc(C)oc5c4)c[nH]c3n2)c(OC)c1
< 0.0316 µM: IC50 (second compound 1 µM) | IC50 (second compound 3.16 µM) | IC50 (second compound 10 µM)
inactive: viability, T/C [1] 115% | viability, T/C [2] 98.5% | viability, T/C [3] 103% | viability, T/C [4] 101% | viability, T/C [5] 115% | viability, T/C [6] 94.1% | viability, T/C [7] 94.9% | viability, T/C [8] 95.2% | viability, T/C [9] 116% | viability, T/C [10] 107% | viability, T/C [11] 109% | viability, T/C [12] 97.5% | viability, T/C [13] 61.4% | viability, T/C [14] 64.5% | viability, T/C [15] 63% | viability, T/C [16] 61.8% | viability, T/C [17] 57.1% | viability, T/C [18] 45.6% | viability, T/C [19] 39.5% | viability, T/C [20] 40.6% | viability, T/C [21] 35.5% | viability, T/C [22] 37% | viability, T/C [23] 40.8% | viability, T/C [24] 35.8% | viability, T/C [25] 29.7% | viability, T/C [26] 29.4% | viability, T/C [27] 29.8% | viability, T/C [28] 30.4% | viability, T/C [29] 34.3% | viability, T/C [30] 36.2% | viability, T/C [31] 30.9% | viability, T/C [32] 29.4% | viability, T/C [33] 30.5% | viability, T/C [34] 33.2% | viability, T/C [35] 33.1% | viability, T/C [36] 31.5%
> 10 µM: IC50 (second compound 0.0316 µM) | IC50 (second compound 0.1 µM) | IC50 (second compound 0.316 µM)

C=C(F)C(=O)N1CCN(c2nc(OCC3CCCN3C)nc3c2CCN(c2cccc4cccc(Cl)c24)C3)CC1CC#N (stereo not drawn) + CNC(=O)c1ccc(Nc2nc(OC3CCCC3)c3c(-c4ccc5nc(C)oc5c4)c[nH]c3n2)c(OC)c1
inactive: viability, T/C [1] 109% | viability, T/C [2] 99.7% | viability, T/C [3] 97.5% | viability, T/C [4] 105% | viability, T/C [5] 94.8% | viability, T/C [7] 89.8% | viability, T/C [8] 104% | viability, T/C [9] 90.7% | viability, T/C [10] 91.9% | viability, T/C [11] 103% | viability, T/C [13] 61.1% | viability, T/C [14] 50.1% | viability, T/C [15] 58.1% | viability, T/C [16] 44% | viability, T/C [17] 57.4% | viability, T/C [19] 36.6% | viability, T/C [20] 36.2% | viability, T/C [21] 32.7% | viability, T/C [22] 38.5% | viability, T/C [23] 47% | viability, T/C [25] 28.3% | viability, T/C [26] 32% | viability, T/C [27] 29.9% | viability, T/C [28] 31.3% | viability, T/C [29] 36.6% | viability, T/C [30] 4.89% | viability, T/C [31] 29% | viability, T/C [32] 33.1% | viability, T/C [33] 30.9% | viability, T/C [34] 29.8% | viability, T/C [35] 38% | viability, T/C [36] 5.43%
active: viability, T/C [6] 6.03% | viability, T/C [12] 4.38% | viability, T/C [18] 3.61% | viability, T/C [24] 0.95%
5.65 µM: IC50 (second compound 0.0316 µM)
< 0.0316 µM: IC50 (second compound 1 µM) | IC50 (second compound 3.16 µM) | IC50 (second compound 10 µM)
5.63 µM: IC50 (second compound 0.1 µM)
3.48 µM: IC50 (second compound 0.316 µM)

C=CC(=O)N1CCN(c2nc(=O)n(-c3c(C)ccnc3C(C)C)c3nc(-c4c(O)cccc4F)c(F)cc23)C(C)C1 (stereo not drawn) + CNC(=O)c1ccc(Nc2nc(OC3CCCC3)c3c(-c4ccc5nc(C)oc5c4)c[nH]c3n2)c(OC)c1
< 0.0316 µM: IC50 (second compound 1 µM) | IC50 (second compound 3.16 µM) | IC50 (second compound 10 µM)
> 10 µM: IC50 (second compound 0.0316 µM) | IC50 (second compound 0.1 µM) | IC50 (second compound 0.316 µM)
inactive: viability, T/C [1] 106% | viability, T/C [2] 105% | viability, T/C [3] 102% | viability, T/C [4] 103% | viability, T/C [5] 106% | viability, T/C [6] 78.6% | viability, T/C [7] 86.2% | viability, T/C [8] 104% | viability, T/C [9] 101% | viability, T/C [10] 103% | viability, T/C [11] 103% | viability, T/C [12] 94.5% | viability, T/C [13] 66.9% | viability, T/C [14] 69% | viability, T/C [15] 64% | viability, T/C [16] 61.1% | viability, T/C [17] 69.3% | viability, T/C [18] 47.5% | viability, T/C [19] 33.8% | viability, T/C [20] 32.8% | viability, T/C [21] 34.6% | viability, T/C [22] 36.2% | viability, T/C [23] 41.4% | viability, T/C [24] 44.8% | viability, T/C [25] 34.3% | viability, T/C [26] 31.2% | viability, T/C [27] 30.6% | viability, T/C [28] 33.3% | viability, T/C [29] 36.4% | viability, T/C [30] 38.1% | viability, T/C [31] 27.6% | viability, T/C [32] 28.6% | viability, T/C [33] 31.9% | viability, T/C [34] 33% | viability, T/C [35] 34.1% | viability, T/C [36] 37.3%

CC(CO)NC(=O)c1cc(-c2ccc(Cl)cc2)nn(-c2cnn(C)c2)c1=O (stereo not drawn) + CNC(=O)c1ccc(Nc2nc(OC3CCCC3)c3c(-c4ccc5nc(C)oc5c4)c[nH]c3n2)c(OC)c1
< 0.0316 µM: IC50 (second compound 1 µM) | IC50 (second compound 3.16 µM) | IC50 (second compound 10 µM)
inactive: viability, T/C [1] 108% | viability, T/C [2] 100% | viability, T/C [3] 101% | viability, T/C [4] 101% | viability, T/C [5] 102% | viability, T/C [6] 98.6% | viability, T/C [7] 113% | viability, T/C [8] 102% | viability, T/C [9] 91.3% | viability, T/C [10] 103% | viability, T/C [11] 118% | viability, T/C [12] 75.4% | viability, T/C [13] 59% | viability, T/C [14] 57.4% | viability, T/C [15] 56.9% | viability, T/C [16] 48% | viability, T/C [17] 59.3% | viability, T/C [18] 57.8% | viability, T/C [19] 38.9% | viability, T/C [20] 34% | viability, T/C [21] 33.5% | viability, T/C [22] 39.9% | viability, T/C [23] 47.7% | viability, T/C [24] 34.3% | viability, T/C [25] 30.5% | viability, T/C [26] 31% | viability, T/C [27] 30% | viability, T/C [28] 30.9% | viability, T/C [29] 37.9% | viability, T/C [30] 36% | viability, T/C [31] 34.2% | viability, T/C [32] 30.3% | viability, T/C [33] 29.9% | viability, T/C [34] 26.9% | viability, T/C [35] 32.5% | viability, T/C [36] 30.7%
> 10 µM: IC50 (second compound 0.0316 µM) | IC50 (second compound 0.1 µM) | IC50 (second compound 0.316 µM)
